In brackets after ≈: the same amount, converted by molar mass.
Key:
[1] = tested on: non-small cell lung cancer cell line (A549); experiment: MTT inhibition of A549 cancer cell line; assay type: cell-based; settings: Homo sapiens, A549, 72 hs
Experimental: (§1) 1. Preparing test solutions: taking a certain amount of compounds 5, using dimethyl sulfoxide (DMSO) to dissolve the compound, and using cell growth medium for each corresponding cell line to dilute the solution to 5 concentrations of test solutions: 500, 250, 125, 62.5, 31.25 μg/mL. The positive control doxorubicin were diluted with cell growth medium for each corresponding cell line to 3 concentrations: 5, 2.5, 1.25 μM. Seven human cancer cell lines, including five adhesive cancer cell lines: human gastric cancer cell line (MKN-45), non-small cell lung cancer cell line (A549), nasopharyngeal carcinoma cell line (CNE1, CNE2), large cell lung cancer cell line (PC-9); and two suspensive cancer cell lines: human promyelocytic leukemia cell line (HL60), human chronic myelogenous leukemia cell line (K562). All seven human cancer cell lines are purchased from Shanghai Chinese Academy of Sciences Cell Bank and stored in School of Medicine of Fujian Medical University. The aforementioned seven cancer cell lines were recovered from the liquid nitrogen, and then cultured in 25 cm^2 flasks under the corresponding culture conditions of each cell lines (see Table 2). […] OD was measured with microplate reader under wavelength of 492 nm and then the inhibition rate was calculated. […]

[2] = tested on: large cell lung cancer cell line (PC-9); experiment: MTT inhibition of PC-9 cancer cell line; assay type: cell-based; settings: Homo sapiens, PC-9, 72 hs
Experimental: as §1

[3] = tested on: human chronic myelogenous leukemia cell line (K562); experiment: MTT inhibition of K562 cancer cell line; assay type: cell-based; settings: K562, 72 hs
Experimental: as §1

[4] = tested on: human promyelocytic leukemia cell line (HL60); experiment: MTT inhibition of HL60 cancer cell line; assay type: cell-based; settings: HL-60, HL60, 72 hs
Experimental: as §1

[5] = tested on: nasopharyngeal carcinoma cell line (CNE1); experiment: MTT inhibition of CNE1 cancer cell line; assay type: cell-based; settings: Homo sapiens, CNE1, 72 hs
Experimental: as §1

[6] = tested on: nasopharyngeal carcinoma cell line (CNE2); experiment: MTT inhibition of CNE2 cancer cell line; assay type: cell-based; settings: Homo sapiens, CNE-2, CNE2, 72 hs
Experimental: as §1

[7] = tested on: human gastric cancer cell line (MKN-45); experiment: MTT inhibition of MKN-45 cancer cell line; assay type: cell-based; settings: MKN-45, 72 hs
Experimental: as §1

[8] = Solubility of Compound 5 when preparing the test solution; assay type: physicochemical
Excerpt: Its water solution (or saline solution) was acidic. […] Suitable co-solvents were selected to enhance the solubility. Studied the solubility enhancing effects of Tween-80 (final concentration 0.02-2%, v/v), PEG-400 (final concentration <40%, v/v), 1, 2-propanediol (final concentration <40%, v/v), glycerol (final concentration <30%, v/v), and CMC-Na (final concentration 1-5%, w/v). […] Considering formulations comprising tween compounds may lead to hemolysis, PEG-400 was selected as the co-solvent.

[9] = tested on: A549 cells xenograft; experiment: In vivo anti-tumor activity, A549 nude mouse model; settings: for Weights (g) After treatment: body weight after treatment; for Weights (g) Before treatment: body weight before treatment
Experimental: The nude mice were fed in the SPF-system, six mice in a cage. The nude mice were provided with standard food and water, maintained in the light and dark cycling conditions (12/12 h), room temperature 25±2° C., humidity 50±10%. The water and beddings were steriled and changed every day. The mice were fed in the maintenance room for a week before the experiments.
Accurately weighed a certain amount of injection grade doxorubicin powder, added saline to obtain a 0.4 mg/mL test solution. The test solution is prepared avoiding light and handy for use.
Human non-small cell lung cancer cell line A549 was resuscitated. The ratio of FBS in the culture was increased from 6% to 10%, so as to make the cells proliferated rapidly. When the cell coverage in the culture flask reached 80% or so (i.e., logarithmic growth phase), the A549 cells were digested and suspended. Using autoclaved PBS to wash the cells twice to remove the residual culture medium. And then the cells were resuspended with PBS and adjusted the cells concentration to 1×10^7 cells/mL.
After the mice accustomed to the environment, under steriled condition, using disposable syringe to transfer A549 cells (1×10^7/mL) and subcutaneously inoculated in the flank of nude mice. 0.2 ml of suspension of A549 cells was injected into each nude mice and the procedure was finished within 30 min. The rest of the cells were subjected to culture and observed for any contamination, so as to provide information on whether the construction of animal model was success.
After the inoculation of cancer cells was success and the volume of xenograft tumors reached 50 to 100 mm^3, the animals were divided randomly into 5 groups (high dosage, middle dosage, low dosage, positive control, blank control) and each group comprised 6 mice.
The animals were administered once per day. The injection volume was adjusted according to the weight measured. The animals were administered for 12 days. Positive control group was injected with 2 mg/kg Doxorubicin. The animals were administered once every 3 days, and 4 times in the 12-day period. Blank control group was injected with saline solution.
During the administration period, the living and mental state of the mice were observed every day. Body weight and tumor size was measured and recorded. The tumor size was measured using Vernier caliper and tumor volumes were calculated using the formula: V (mm^3)=½×L (mm)×W^2 (mm^2) in which L is the length and W is the width of the solid tumor nodules.
24 hrs after the last administration, the nude mice were sacrificed and the tumor was removed for volume measurements. Tumor inhibition rate was calculated.
Each mouse was weighted 24 hours after administration. In the end of the experiment, the mice were sacrifice by treating at the neck area. The tumor was removed for volume measurements and took photos.
The experimental data were analyzed by SPSS 13.0 software Comparison between groups were carried out by one-way ANOVA or two-sample comparison of U-test. Results were provided in mean±SE, difference with P<0.05 was deemed significant.

[10] = High dosage 30 mg/kg tail vein once per day, 12 days
[11] = Low dosage 5 mg/kg tail vein once per day, 12 days
[12] = Middle dosage 15 mg/kg tail vein once per day, 12 days
[13] = 2 mg/kg tail vein once every 3 days, 4 times in 12 days

O=c1cc(-c2ccc(Oc3c(-c4ccc(O)cc4)oc4cc(O)cc(O)c4c3=O)cc2)oc2cc(O)cc(O)c12 [Compound 5, 3-(4-(5,7-dihydroxy-4-oxo-4H-benzopyran-2-yl)phenoxyl)-5,7-dihydroxy-2-(4-hydroxyphenyl)-4H-benzopyran-4-one]
IC50 [1]: 13.2 ± 0.91 mg/L (≈ 24.5 µM)
IC50 [2]: 21.8 ± 1.3 mg/L (≈ 40.5 µM)
IC50 [3]: 16.8 ± 2.8 mg/L (≈ 31.2 µM)
IC50 [4]: 18.3 ± 3 mg/L (≈ 34 µM)
IC50 [5]: 49.3 ± 2.8 mg/L (≈ 91.5 µM)
IC50 [6]: 13.3 ± 2.6 mg/L (≈ 24.7 µM)
IC50 [7]: 33.2 ± 3.1 mg/L (≈ 61.7 µM)
solubility at injection acceptable pH ([8]; pH adjusted to 6.0-8.0): still quite low
solubility in water ([8]; water): poorly dissolved in water
toxicity in nude mice ([9]; 5-30 mg/kg tail vein once per day, 12 days): low
Tumor Weight-inhibitions(%) [9, 10]: 62.2±21.3%
Tumor weights [9, 10]: 0.193 ± 0.056 g
Weights (g) After treatment [9, 10]: 24.4 ± 1.6 g
Weights (g) Before treatment [9, 10]: 22.4 ± 1.2 g
Tumor Weight-inhibitions(%) [9, 11]: 36.9±6.1%
Tumor weights [9, 11]: 0.305 ± 0.039 g
Weights (g) After treatment [9, 11]: 23.4 ± 0.7 g
Weights (g) Before treatment [9, 11]: 22.8 ± 0.8 g
Tumor Weight-inhibitions(%) [9, 12]: 43.7±19.8%
Tumor weights [9, 12]: 0.287 ± 0.101 g
Weights (g) After treatment [9, 12]: 24.9 ± 1.0 g
Weights (g) Before treatment [9, 12]: 23.9 ± 1.5 g

COc1cccc2c1C(=O)c1c(O)c3c(c(O)c1C2=O)C[C@@](O)(C(=O)CO)C[C@@H]3O[C@H]1C[C@H](N)[C@H](O)[C@H](C)O1 [Doxorubicin, reference compound]
Tumor Weight-inhibitions(%) [9, 13]: 56.8±5.6%
Tumor weights [9, 13]: 0.220 ± 0.037 g
Weights (g) After treatment [9, 13]: 23.6 ± 1.1 g
Weights (g) Before treatment [9, 13]: 22.7 ± 1.9 g

— patent US20170360743A1, “BIFLAVONE COMPOUND AND USES THEREOF FOR TREATING CANCERS AND PREPARING DRUGS” (FUJIAN MEDICAL UNIVERSITY, priority 2015, published 2017)
